Earlier results in patent US6872696B2, “Particle with substituted polyvinyl alcohol coating” (Genencor International, Inc., priority 2000, dated 2005).

details: neutral unreacted compound in water, 25 degrees C

Solubility g/100 ml H2O	Compound
infinite	OCCS [2-mercaptoethanol]
0.67 g/100 ml H2O	CCS [ethanethiol]
infinite	O=C(O)/C=C\C(=O)O [maleic]
